Test results from patent publication US20120021476A1, “Trace Element Solution For Biogas Methods” (AGRAFERM TECHNOLOGIES AG, priority 2007, published 2012).
Where two headings read alike, the source gives them in different places. Residues, ends and D or L forms follow the SMILES beside them.

Tests used:
[1] = cited from earlier work
[2] = cited from earlier work; remark: listed apart in the source
[3] = cited from earlier work; remark: listed apart in the source
[4] = cited from earlier work; remark: listed apart in the source
[5] = cited from earlier work; remark: listed apart in the source
[6] = cited from earlier work; remark: listed apart in the source
[7] = cited from earlier work; remark: listed apart in the source
[8] = cited from earlier work; remark: listed apart in the source
[9] = Concentrations of the trace elements in the fermentation residue with different complexing agents; type: physicochemical
Excerpt: In Table 1 the trace element solution according to the invention contains the complexing agent in a stoichiometric amount of 60% EDTA and 60% of a phosphoric acid mixture relative to the overall amount of trace elements, which is composed of identical molar amounts of pyrophosphoric acid (H4P2O7), polyphosphoric acid (H6P4O13), metaphosphoric acid (H4P4O12), hypophosphoric Acid (H3PO2) and phosphorus acid (phosphonic acid) (H3PO3).

[10] = as above; type: physicochemical; remark: listed apart in the source
[11] = tested on: aromatic amino acid synthesis; conditions: cited from earlier work
[12] = cited from earlier work; remark: listed apart in the source
[13] = equimolar EDTA, neutral pH
Excerpt: If instead of EDTA, complexing agents are used which form complexes of two or several ligands of the complexing agent per metal atom, then a correspondingly multiple (double, multiple) molar amount of the relevant ligands must be used in order to complex the trace elements in the solution.

[14] = cited from earlier work; remark: listed apart in the source
[15] = 100 × times metal versus Simple, 50% NTA
[16] = column after 50% NTA and citrate (500%), not the invention

O=C(O)c1ccccc1O [(C6H4)(OH)(COOH), Salicylic acid]
complexing of Cu^2+ in words [1]: very good | complexing of Fe^3+ in words [2]: excellent | complexing of Ni^2+ in words [3]: very good | complexing of Co^2+ in words [4]: very good | complexing of Zn^2+ in words [5]: good | complexing of Mn^2+ in words [6]: very good

O=C(O)C(=O)O [(COOH)2, Oxalic acid]
complexing of Fe^2+ in words [7]: moderate | complexing of Cu^2+ in words [1]: moderate | complexing of Fe^3+ in words [2]: good | complexing of Ni^2+ in words [3]: moderate | complexing of Co^2+ in words [4]: moderate | complexing of Ca^2+ in words [8]: precipitates | complexing of Zn^2+ in words [5]: moderate

[Al] [Al]
Bio-availability (Invention) ([9]; 60% EDTA 60% phosphoric acids): 100% | Difference [10, 15]: 9931.3% | Bio-availability [10, 16]: 100%

O=CC(=O)O [C2H2O3, oxoethanoic acid]
complexing of Fe^2+ in words [7]: somewhat more poorly | complexing of Cu^2+ in words [1]: in small amounts | complexing of Ni^2+ in words [3]: somewhat more poorly | complexing of Co^2+ in words [4]: somewhat more poorly

N[C@@H](CS)C(=O)O [C3H7O2NS, Cysteine]
complexing of Ni^2+ in words [3]: extremely well | complexing of Co^2+ in words [4]: extremely well

O=C(O)CNCP(=O)(O)O [C3H8O5NP, n-phosphomethylglicine]
effect on aromatic amino acid synthesis [11]: inhibits the aromatic amino acid synthesis

N[C@@H](CC(=O)O)C(=O)O [C4H7O4N, Aspartic acid]
complexing of Cu^2+ in words [1]: very well | complexing of Ni^2+ in words [3]: very well | complexing of Al^3+ in words [12]: only moderately | complexing of Zn^2+ in words [5]: very well

C[C@@H](O)[C@H](N)C(=O)O [C4H9O3N, Threonine]
complexing of Cu^2+ in words [1]: very well | complexing of Co^2+ in words [4]: good | complexing of Zn^2+ in words [5]: good

O=C(O)c1cc(=O)[nH]c(=O)[nH]1 [C5H4O4N2, Orotic acid]
complexing of Cu^2+ in words [1]: able to complex | complexing of Ni^2+ in words [3]: able to complex | complexing of Co^2+ in words [4]: able to complex

N[C@@H](CCC(=O)O)C(=O)O [C5H9O4N, Glutamic acid]
complexing of Cu^2+ in words [1]: very well | complexing of Ni^2+ in words [3]: very well | complexing of Zn^2+ in words [5]: not so well

CC(C)[C@H](N)C(=O)O [C5H11O2N, valine]
complexing of Cu^2+ in words [1]: very well | complexing of Ni^2+ in words [3]: very well | complexing of Zn^2+ in words [5]: very well

N[C@@H](Cc1c[nH]cn1)C(=O)O [C6H9O2N3, Histidine]
complexing of Cu^2+ in words [1]: very good | complexing of Ni^2+ in words [3]: very good | complexing of Co^2+ in words [4]: very good | complexing of Al^3+ in words [12]: good | complexing of Ca^2+ in words [8]: poor | complexing of Zn^2+ in words [5]: very good | complexing of Mn^2+ in words [6]: good

O=C[C@H](O)[C@@H](O)[C@@H](O)[C@H](O)C(=O)O [C6H10O7, galacturonic acid]
complexing of Fe^2+ in words [7]: very well

N[C@@H](CSSC[C@H](N)C(=O)O)C(=O)O [C6H12O4N2S2, cystine]
complexing of Cu^2+ in words [1]: excellent | complexing of Ni^2+ in words [3]: very well | complexing of Zn^2+ in words [5]: very well

NCCCC[C@H](N)C(=O)O [C6H14O2N2, lysine]
complexing of Cu^2+ in words [1]: very good | complexing of Ni^2+ in words [3]: very good | complexing of Zn^2+ in words [5]: well

N[C@@H](Cc1ccccc1)C(=O)O [C9H11O2N, phenylalanine]
complexing of Cu^2+ in words [1]: very good | complexing of Zn^2+ in words [5]: very good

O=C(O)CN(CCN(CC(=O)O)CC(=O)O)CC(=O)O [C10H16O8N2, ethylenediaminetetraacetic acid]
complexing of Fe^2+ in words [7]: very well | complexing of Cu^2+ in words [1]: very well | precipitation in the presence of H2S [13]: no precipitation | complexing of Fe^3+ in words [2]: extremely well | complexing of Mg^2+ in words [14]: well | complexing of Ni^2+ in words [3]: very well | complexing of Co^2+ in words [4]: very well | complexing of Ca^2+ in words [8]: very well | complexing of Zn^2+ in words [5]: very well | complexing of Mn^2+ in words [6]: very well

O=C(O)CS [CH2(SH)COOH, mercaptoacetic acid (thio-glycol acid)]
complexing of Fe^2+ in words [7]: very good | complexing of Fe^3+ in words [2]: excellent | complexing of Co^2+ in words [4]: very good | complexing of Zn^2+ in words [5]: excellent | complexing of Mn^2+ in words [6]: good

CC(=O)CC(C)=O [CH3(C═O)CH2(C═O)CH3, acetylacetone]
complexing of Fe^2+ in words [7]: moderately well | complexing of Cu^2+ in words [1]: well | complexing of Fe^3+ in words [2]: extremely well | complexing of Mg^2+ in words [14]: moderately well | complexing of Ni^2+ in words [3]: well | complexing of Co^2+ in words [4]: moderately well | complexing of Al^3+ in words [12]: extremely well | complexing of Mn^2+ in words [6]: moderately well

CC(=O)C(=O)O [CH3(C═O)COOH, oxopropionic acid (pyruvic acid, pyruvate)]
complexing of Fe^2+ in words [7]: somewhat more poorly | complexing of Cu^2+ in words [1]: in small amounts | complexing of Ni^2+ in words [3]: somewhat more poorly | complexing of Co^2+ in words [4]: somewhat more poorly

CC(O)C(=O)O (stereo not shown) [CH3CH(OH)COOH, 2-hydroxypropionic acid (lactic acid)]
complexing of Fe^2+ in words [7]: somewhat more poorly | complexing of Cu^2+ in words [1]: in small amounts | complexing of Ni^2+ in words [3]: somewhat more poorly | complexing of Co^2+ in words [4]: somewhat more poorly

[Ca+2] [Ca, calcium]
Bio-availability (Invention) [9]: 100% | Difference [10, 15]: 38.2% | Bio-availability [10, 16]: 100%

[Co] [Co, cobalt]
Bio-availability (Invention) [9]: 100% | bio-availability in words ([10]; 50% NTA): hardly bio-available at all | Difference [10, 15]: −100.0% | Bio-availability [10, 16]: 0%

[Cu] [Cu, copper]
Bio-availability (Invention) ([9]; 60% EDTA 60% phosphoric acids): 0% | Difference [10, 15]: −100.0% | Bio-availability [10, 16]: 0%

O=C(O)CNCCNCC(=O)O [EDDA, Ethylendiimine diacetic acid]
complexing of Co^2+ in words [4]: very well | complexing of Zn^2+ in words [5]: very well | complexing of Mn^2+ in words [6]: well

[Fe] [Fe, iron]
Bio-availability (Invention) ([9]; 60% EDTA 60% phosphoric acids): 100% | Difference [10, 15]: 4260.1% | Bio-availability [10, 16]: 100%

OB(O)O [H3O3B, boric acid]
complexing of Fe^3+ in words [2]: very good | complexing of Mg^2+ in words [14]: only with difficulty | complexing of Ca^2+ in words [8]: only with difficulty

O=P(O)(O)OP(=O)(O)O [H4P2O7, pyrophosphoric acid]
complexing of Mg^2+ in words [14]: very strongly | complexing of Mn^2+ in words [6]: very strongly

O=C(O)CC(O)(CC(=O)O)C(=O)O [HOOCCH2C(OH)(COOH)CH2COOH, Citric acid]
complexing of Cu^2+ in words [1]: good | complexing of Fe^3+ in words [2]: good | complexing of Ni^2+ in words [3]: good | complexing of Co^2+ in words [4]: good

O=C(O)CC(O)C(=O)O (stereo not shown) [HOOCCH2CH(OH)COOH, malic acid]
complexing of Fe^3+ in words [2]: good | complexing of Al^3+ in words [12]: good

O=C(O)CC(S)C(=O)O (stereo not shown) [HOOCCH2CH(SH)COOH, Mercaptomalic acid]
complexing of Ni^2+ in words [3]: well | complexing of Zn^2+ in words [5]: well

CC(C)[C@H](N)C(=O)N[C@H](C(=O)O)C(C)C [L-valyl-L-valine] (H-Val-Val-OH)
complexing of Ni^2+ in words [3]: very good

[Mg+2] [Mg, magnesium]
Bio-availability (Invention) ([9]; 60% EDTA 60% phosphoric acids): 100% | Difference [10, 15]: 9698.1% | Bio-availability [10, 16]: 100%

[Mn+2] [Mn, manganese]
Bio-availability (Invention) [9]: 100% | Bio-availability [10]: 31% | Difference [10]: −99.2%

[Ni] [Ni, nickel]
Bio-availability (Invention) [9]: 100% | Bio-availability [10]: 0% | Difference [10]: −100.0% | available share of the added volume [10]: 2 ppm | bio-availability in words [10]: hardly bio-available at all

[Zn] [Zn, zinc]
Bio-availability (Invention) [9]: 100% | bio-availability in words ([10]; 50% NTA): hardly bio-available at all | Difference [10, 15]: −100.0% | Bio-availability [10, 16]: 0%

meso-malic acid
complexing of Fe^3+ in words [2]: good | complexing of Al^3+ in words [12]: good
